1 substance from patent US20090317373A1, “Inhibition of the Anti-FVIII Immune Response” (Institut National De La Sante Et De La Recherche Medicale, priority 2005, published 2009) can be followed below.

Experiment [1] has as its system D9E9 (T cell clone specific for FVIII). Kind of experiment: In vitro activation of FVIII-specific T cell clone D9E9 (IFN-gamma production). It is filed as cell-based, human. The method, then: After washing, the DCs of Example 1 were resuspended in DMEM:F12 (1:1) medium containing 10% FCS and 10,000 DCs were introduced into each well of a 96-well cell culture plate with a round base. After incubation with mannan (1 mg/ml) in each well for 30 min, the DCs were cultured with 5,000 D9E9 (T cell clone specific for FVIII) in DMEM:F12 (1:1) medium containing 10% FCS and 20 U/ml of rhIL-2 with various doses of whole FVIII or FVIII-BDD (10, 8, 6, 4, 2 μg/ml) for 20 hours at 37° C. Like the D9E9 cells, the LE2E9 and BO2C11 lines of B cells transformed by EBV were cultured in the presence of 10 μg/ml of whole FVIII or FVIII-BDD. The control conditions were maintained in the absence of FVIII, D9E9 or DCs. As a negative control, hrFIX (Benefix, Baxter) was incubated with the cells at isomolar concentrations of FVIII. The supernatants were harvested at the end of the incubation period and tested for their production of IFNγ using the human IFN-γ Duo Set (DY285, R&D Systems) in accordance with the manufacturer's instructions.

The subject of experiment [2] is human DCs derived from monocytes. As to the kind of experiment: In vitro internalization of fluorescent ligands by human DCs derived from monocytes (flow cytometry). The class given is cell-based. The method, then: DCs were prepared from monocytes as described previously (29) with a change in the culture media. Briefly, mononucleated cells were isolated from heparinized leukoplatelet layers (“buffy coats”) from healthy adult donors by adhesion on plastic cell culture dishes in RPMI 1640 medium supplemented with 10% human AB serum, glutamine and antibiotics for 60 minutes. Non-adhering cells were removed by 3 gentle washings with the medium. The adhering monocytes were cultured in X-VIVO 15 medium (Cambrex Bio Sciences, Paris, France) supplemented with 1% human AB serum and antibiotics and in the presence of 500 IU/ml of recombinant human interleukin-4 (rhIL-4), R&D Systems (Lille, France) and 1,000 IU/ml of recombinant human granulocyte macrophage colony-stimulating factor (rhGM-CSF), Immunotools (Friesoythe, Germany). Half of the medium, comprising all the supplements, was replaced every two days. After culture for 5 days, the non-adhering cells and those with little adhesion, corresponding to the fraction enriched in DC, were harvested, washed and used for subsequent experiments.
Whole recombinant human FVIII (1,000 IU, Kogenate, Bayer) or B domain-deleted recombinant human FVIII (FVIII-BDD) (1,000 IU, Refacto, Wyeth) were solubilized in water and dialyzed against bicarbonate buffer (pH 9.2) containing CaCl2, 5 mM at 4° C., followed by coupling to fluorescein 5-isothiocyanate (isomer I, Sigma-Aldrich, Saint Quentin Fallavier, France) for 7-8 hours at 4° C. The labelled FVIII was then dialyzed against RPMI 1640 medium to remove non-coupled FITC. The FVIII-FITC was quantified by the Bradford method using bovine serum albumin as the standard.
The DCs obtained in Example 1 (0.4×10^5 cells/well of a 96-well plate with 100 μl/well) were incubated with various doses (0.029, 0.057, 0.143 and 0.358 μM) of fluorescent conjugated ligands (FVIII-FITC, BDD-FVIII-FITC) obtained in Example 2 in X-VIVO medium for 0, 15, 60 and 120 min at 4° C. or at 37° C. After the incubation period, the cells were washed with cold PBS and analyzed by flow cytometry. To investigate the involvement of receptors in the internalization, the cells were preincubated for 30 min at 37° C. with […] and 1 mg/ml of mannan (Sigma-Aldrich, Saint Quentin Fallavier, France) before the addition of ligands conjugated to fluorescein. In addition to FVIII-FITC and FVIII-BDD-FITC, human α2-macroglobulin-MA (α2M) conjugated to FITC from Biomac (Leipzig, Germany), dextran-FITC (molecular weight 40,000) from Molecular Probes (Leiden, The Netherlands) and Lucifer yellow (LY-CH) from Sigma-Aldrich were used. The investigation of the internalization of FVIII was also carried out in the presence of 20 μg/ml of anti-mannose receptor monoclonal antibody (PAM-1, isotype IgG1) or anti-DC-SIGN monoclonal antibody ((AZN-D1, isotype IgG1) or mouse IgGλ,k conjugated to PE-Cy (BD Pharmingen, France). To investigate whether DC-SIGN is involved in the endocytosis of FVIII, the B lymphocyte line HD-420 transformed by wild-type EBV and transfected with DC-SIGN or not transfected was incubated with various concentrations of FVIII-FITC (0, 0.036, 0.072 and 0.143 μM) for 2 hours in RPMI 1640 medium supplemented with 10% FCS (foetal calf serum) and antibiotics. The analysis was carried out as for the DCs.

Experiment [3] concerns the target binding of FVIII to VWF (Homo sapiens, UniProt P00451). As to the kind of experiment: ELISA for binding of FVIII to VWF. The note with it: FVIII preincubated with mannan (0.01 to 4 mg/ml); FIG. 5b. The method, then:
ELISA plates (Nunc, Roskilde, Denmark) were coated with VWF (VWF, Willefectin, LFB, Les Ulis, France) at 2 μg/ml per well in PBS (pH 7.4) at 37° C. for 1 hour. The plates were saturated with PBS containing 1% skimmed milk and 0.1% Tween 20 for 1 hour at 37° C. FVIII (0.3 μg/ml) was preincubated by itself or with mannan (0.01 to 4 mg/ml) or with BO2C11 (human monoclonal anti-FVIII IgG) (0.05 to 40 μg/ml) in a blocking buffer for 1 hour at 37° C. and then added to the wells coated with VWF and incubated for 1 hour at 37° C. A mouse monoclonal anti-FVIII IgG (mAb6) (3 μg/ml) was incubated at 37° C. for 1 hour. […] No binding of FVIII was observed on the wells which had not been coated.
(In an ELISA, binding on a coated surface is turned into a signal by an enzyme label.)

The target of experiment [4] is FVIII (Homo sapiens, UniProt P00451). As to the kind of experiment: One-stage clotting test, residual FVIII activity in normal human plasma. The class given is biochemical. The conditions noted are these: normal human plasma incubated with mannan 2 hours at 37° C.; FIG. 5a. The method, then:
Normal human plasma was incubated with an identical volume of mannan ([…]) for 2 hours at 37° C. The residual FVIII activity was measured in a one-stage clotting test using human placental […] as an activator (Dade Behring Marburg GmbH, Marburg, Germany) and FVIII-depleted plasma (Dade Behring Marburg GmbH, Marburg, Germany) as a substrate and a fibrin timer (Sysmex CA500, Dade Behring). The dilutions were performed in Owren-Koller buffer (Diagnostica Stago, Asnieres, France).

Where [5] appears, read: in the presence of mannan, FIG. 2d.

Sequence of binding of FVIII to VWF (P00451 20-1667 limits assumed): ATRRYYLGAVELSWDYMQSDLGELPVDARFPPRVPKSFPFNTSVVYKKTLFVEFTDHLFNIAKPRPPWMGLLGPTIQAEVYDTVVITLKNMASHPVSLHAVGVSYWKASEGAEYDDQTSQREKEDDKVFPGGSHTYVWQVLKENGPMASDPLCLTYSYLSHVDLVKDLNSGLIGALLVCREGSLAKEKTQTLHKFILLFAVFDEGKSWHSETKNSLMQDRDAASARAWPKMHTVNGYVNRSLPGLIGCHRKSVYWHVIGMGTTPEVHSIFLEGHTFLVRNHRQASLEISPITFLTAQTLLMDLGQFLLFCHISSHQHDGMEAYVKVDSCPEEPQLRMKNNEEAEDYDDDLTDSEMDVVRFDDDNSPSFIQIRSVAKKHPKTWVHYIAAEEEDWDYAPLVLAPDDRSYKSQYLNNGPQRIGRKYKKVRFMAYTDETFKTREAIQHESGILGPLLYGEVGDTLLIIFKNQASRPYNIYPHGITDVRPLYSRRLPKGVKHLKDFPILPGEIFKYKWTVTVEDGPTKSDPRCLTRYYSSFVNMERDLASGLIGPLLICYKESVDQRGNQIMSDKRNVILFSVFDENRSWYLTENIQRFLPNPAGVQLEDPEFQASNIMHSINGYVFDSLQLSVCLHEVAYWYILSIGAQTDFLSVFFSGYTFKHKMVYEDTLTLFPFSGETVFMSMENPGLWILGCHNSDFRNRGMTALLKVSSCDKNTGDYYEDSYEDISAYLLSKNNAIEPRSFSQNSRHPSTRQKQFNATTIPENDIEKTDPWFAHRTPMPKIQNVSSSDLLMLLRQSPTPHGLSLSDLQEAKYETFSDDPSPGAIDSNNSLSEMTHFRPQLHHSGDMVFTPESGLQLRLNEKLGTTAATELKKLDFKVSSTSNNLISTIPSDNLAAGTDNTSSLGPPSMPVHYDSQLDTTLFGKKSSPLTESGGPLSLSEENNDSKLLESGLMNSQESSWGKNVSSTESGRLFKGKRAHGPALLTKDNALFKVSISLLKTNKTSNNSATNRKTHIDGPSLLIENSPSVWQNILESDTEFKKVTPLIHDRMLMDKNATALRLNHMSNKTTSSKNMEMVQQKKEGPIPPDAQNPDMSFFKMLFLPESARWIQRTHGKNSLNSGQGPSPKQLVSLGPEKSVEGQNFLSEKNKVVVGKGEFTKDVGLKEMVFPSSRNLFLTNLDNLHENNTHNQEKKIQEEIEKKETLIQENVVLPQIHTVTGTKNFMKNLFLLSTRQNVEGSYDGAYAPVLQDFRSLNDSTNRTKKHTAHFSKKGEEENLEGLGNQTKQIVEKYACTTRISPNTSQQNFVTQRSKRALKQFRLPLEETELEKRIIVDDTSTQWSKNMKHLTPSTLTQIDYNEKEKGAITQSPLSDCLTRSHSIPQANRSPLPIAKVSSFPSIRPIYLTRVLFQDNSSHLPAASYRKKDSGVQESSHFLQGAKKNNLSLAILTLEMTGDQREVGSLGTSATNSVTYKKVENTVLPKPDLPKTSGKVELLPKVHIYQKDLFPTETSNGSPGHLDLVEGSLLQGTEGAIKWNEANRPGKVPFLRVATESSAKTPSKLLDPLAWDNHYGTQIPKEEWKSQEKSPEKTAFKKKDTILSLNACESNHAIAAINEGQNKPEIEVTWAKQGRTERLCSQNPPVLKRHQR
Sequence of binding of FVIII to VWF (P00451 1668-2351 limits assumed): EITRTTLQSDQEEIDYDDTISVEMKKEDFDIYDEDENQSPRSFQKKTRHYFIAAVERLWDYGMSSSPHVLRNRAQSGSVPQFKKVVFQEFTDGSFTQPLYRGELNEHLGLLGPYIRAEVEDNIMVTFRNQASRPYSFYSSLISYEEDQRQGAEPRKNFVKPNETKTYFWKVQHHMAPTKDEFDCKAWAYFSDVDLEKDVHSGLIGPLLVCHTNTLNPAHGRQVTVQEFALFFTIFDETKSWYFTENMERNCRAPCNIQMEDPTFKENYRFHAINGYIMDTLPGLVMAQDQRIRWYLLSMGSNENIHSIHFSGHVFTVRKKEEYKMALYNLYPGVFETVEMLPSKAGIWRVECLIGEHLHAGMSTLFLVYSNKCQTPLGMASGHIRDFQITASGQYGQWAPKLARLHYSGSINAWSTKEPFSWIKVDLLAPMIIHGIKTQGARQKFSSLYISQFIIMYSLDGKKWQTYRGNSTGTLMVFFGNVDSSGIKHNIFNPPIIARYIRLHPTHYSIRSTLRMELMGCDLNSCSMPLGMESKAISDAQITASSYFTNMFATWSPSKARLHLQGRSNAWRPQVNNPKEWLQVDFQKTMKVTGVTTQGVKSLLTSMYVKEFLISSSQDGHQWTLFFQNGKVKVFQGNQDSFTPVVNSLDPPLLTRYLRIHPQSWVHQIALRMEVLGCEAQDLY
Sequence of FVIII (P00451 20-1667 limits assumed): as the sequence (P00451 20-1667 limits assumed) above
Sequence of FVIII (P00451 1668-2351 limits assumed): as the sequence (P00451 1668-2351 limits assumed) above

Turning to mannan, the “inhibition of FVIII-induced activation of D9E9 cells” value in experiment [1] (DCs preincubated with mannan (1 mg/ml), FIG. 4b (B)) is recorded as “up to 84%”. Besides, in experiment [1] (in presence of mannan, FIG. 4b (C)), the “activation of D9E9 cells by autologous B cells pulsed with FVIII, LE2E9” value was “does not prevent activation”. Further, the “neutralizing effect on the internalization of the antigen (dose dependence)” value in experiment [2] (FVIII, FVIII-BDD and dextran, FIG. 2e) is “proportional to the dose”. Besides, the “inhibition of internalization of α2M” value in experiment [2] (excess of RAP or mannan, FIG. 2f) is recorded as “no effect”. Further, in experiment [2] (setting [5]), the “blocking of internalization of dextran” value turned out to be 80% and the “effect on internalization of Lucifer yellow (ly)” value is “not affected”. For the same substance, in experiment [2] (mannan 1 mg/ml, p<0.05), the “inhibition of endocytosis of FVIII-BDD” value was found to be 41.3±17.2% and the “inhibition of endocytosis of whole FVIII” value stood at 35.0±10.0%. The “saturation concentration for inhibition of internalization” value in experiment [2] (similar for FVIII, FVIII-BDD and dextran, FIG. 2e) is 100 µg/mL. Further, the “reduction of endocytosis of FVIII by the human DCs” value in experiment [2] (summary statement in Example 5) is recorded as “up to 40%”. Moreover, the “effect on interaction of FVIII with VWF” value in experiment [3] is on record as “does not interfere”. In experiment [4], the “effect on proclotting activity of FVIII” value is on record as “does not block”.
